Tests used:
RAW264.7 [1] = assay: Inhibition of LPS-induced nitric oxide production in mouse RAW264.7 cells treated 1 hr before LPS challenge measured after 24 hrs by Griess reaction method; assay type: functional, cell-based
HeLa = assay: Cytotoxicity against human HeLa cells after 72 hrs by MTT assay; assay type: functional, cell-based
RAW264.7 [2] = assay: Cytotoxicity against mouse RAW264.7 cells at 100 uM; assay type: cell-based; details: raw264.7, 100 µM

IC50 (RAW264.7 [1])	SMILES	IC50 (HeLa)	Activity (RAW264.7 [2])
53.8 µM	C[C@]12CCC(=O)C=C1CC[C@@H]1[C@@H]2[C@@H](O)C[C@@]2(C)[C@H]1CC[C@]2(O)C(=O)CO [HYDROCORTISONE]	–	–
6.8 µM	C=C1[C@H]2CC[C@](C)(O)[C@H](O)[C@H]2O[C@@]12OC(C)(C)CC2=O [PLEUROSPIROKETAL A]	20.6 µM	Non-toxic
12.6 µM	C=C1[C@H]2CC[C@](C)(O)[C@H](O)[C@H]2O[C@]12OC(C)(C)CC2=O [PLEUROSPIROKETAL B]	32.8 µM	Non-toxic
20.8 µM	CC(=O)OCC1=C2CC[C@](C)(O)[C@H](O)[C@H]2O[C@@]12OC(C)(C)CC2=O [PLEUROSPIROKETAL C]	18.8 µM	Non-toxic

Reference: ChEMBL document CHEMBL2331177, “Pleurospiroketals A-E, perhydrobenzannulated 5,5-spiroketal sesquiterpenes from the edible mushroom Pleurotus cornucopiae” (J Nat Prod, 2013)
